Tested on: infants with central diabetes insipidus
Experiment: Pharmacodynamics
Format: in vivo
Settings: Case 2, IV administration of dDAVP; confirmed diagnosis of CDI

desmopressin [dDAVP]
urine output and osmolality after IV administration: Normalization of urine output and osmolality

From paper PMC4338649 (International Journal of Endocrinology and Metabolism, 2014)
